Source: ChEMBL document CHEMBL1201862, “PubChem BioAssay data set” (2004)
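1) Cells in 96-well plates. 2) Compound, 48 h, 5 concentrations. 3) Linear interpolation between surrounding doses. 4) Unreached endpoint = highest concentration. GI50 = concentration required for 50% inhibition of growth.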 Activity calls are given as the source filed them. Cut-off read from the data, not from the text of the source: active = GI50 up to about 1.1 µM and inactive = higher.

How the values were obtained:
Test in all cases: growth of human tumour cells (NCI), 48 h
SNB-75 = system: SNB-75
HOP-92 = system: HOP-92
IGROV-1 = system: IGROV-1
HL-60 = system: HL-60
ACHN = system: ACHN
TK-10 = system: TK-10
CCRF-CEM = system: CCRF-CEM
NCI-H460 = system: NCI-H460
NCI-H226 = system: NCI-H226
OVCAR-3 = system: OVCAR-3
SF-539 = system: SF-539
SK-MEL-28 = system: SK-MEL-28
SK-MEL-5 = system: SK-MEL-5
HCC 2998 = system: HCC 2998
RXF 393 = system: RXF 393
HOP-62 = system: HOP-62
A498 = system: A498
SF-268 = system: SF-268
786-0 = system: 786-0

Measured: GI50

[O-]c1c2c(nn1-c1ccc(F)cc1)c1ccccc1c[n+]2Cc1ccccc1
active: HL-60 0.327 µM | CCRF-CEM 0.401 µM
inactive: SNB-75 23.3 µM | HOP-92 18.9 µM | IGROV-1 11.1 µM | ACHN 1.77 µM | TK-10 24.6 µM | NCI-H460 10.5 µM | NCI-H226 16.6 µM | OVCAR-3 7.69 µM | SF-539 3.26 µM | SK-MEL-28 15.3 µM | SK-MEL-5 3.96 µM | HCC 2998 11.7 µM | RXF 393 15.1 µM | HOP-62 16.5 µM | A498 30.9 µM | SF-268 18.9 µM

O=[N+]([O-])c1ccc(-c2ccc(-c3csc(Nc4ccccn4)n3)o2)cc1
inactive: SNB-75 > 100 µM | HOP-92 > 100 µM | IGROV-1 > 100 µM | HL-60 > 100 µM | ACHN 45.8 µM | TK-10 26.9 µM | NCI-H460 > 10 µM | OVCAR-3 > 100 µM | SK-MEL-28 95.7 µM | HCC 2998 > 100 µM | HOP-62 31.2 µM | SF-268 19.7 µM

CC1CCCCNC1=S (configuration not stated)
inactive: SNB-75 > 10 µM | HOP-92 > 10 µM | IGROV-1 > 10 µM | HL-60 > 10 µM | ACHN > 10 µM | TK-10 > 10 µM | CCRF-CEM > 10 µM | NCI-H460 > 10 µM | NCI-H226 > 10 µM | OVCAR-3 > 10 µM | SF-539 > 10 µM | SK-MEL-28 > 10 µM | SK-MEL-5 > 10 µM | RXF 393 > 10 µM | HOP-62 > 10 µM | A498 > 10 µM | SF-268 > 10 µM

CCC1=C(C[C@H]2NCCc3cc(OC)c(OC)cc32)C[C@H]2c3cc(OC)c(OC)cc3CCN2C1
active: SNB-75 0.0332 µM | HOP-92 0.0204 µM | IGROV-1 0.0445 µM | HL-60 0.0247 µM | ACHN 0.0388 µM | NCI-H460 0.0261 µM | OVCAR-3 0.0387 µM | 786-0 0.0261 µM | SF-539 0.0326 µM | SK-MEL-28 0.0365 µM | SK-MEL-5 0.0234 µM | HCC 2998 0.0293 µM | RXF 393 0.0254 µM | HOP-62 0.0286 µM | A498 0.0181 µM | SF-268 0.0356 µM

CC(=O)NC1C(OCc2ccccc2)OC(CO)C(O)C1OC(C)C(=O)N[C@@H](C)C(=O)N[C@H](CCC(=O)OCCNc1c2ccccc2nc2cccc([N+](=O)[O-])c12)C(N)=O (some centres not stated)
active: SNB-75 0.0114 µM | HOP-92 0.00178 µM | IGROV-1 0.0215 µM | HL-60 0.00647 µM | ACHN 0.00145 µM | TK-10 0.00344 µM | CCRF-CEM 0.0189 µM | NCI-H460 0.000129 µM | NCI-H226 0.00548 µM | OVCAR-3 0.00142 µM | 786-0 0.000328 µM | SF-539 0.00313 µM | SK-MEL-28 0.00441 µM | SK-MEL-5 0.00239 µM | HCC 2998 0.000681 µM | RXF 393 0.0012 µM | A498 0.00501 µM | SF-268 0.00394 µM

Cn1c(=O)c2c(nc3n2C(CCl)CO3)n(C)c1=O (configuration not stated)
inactive: SNB-75 > 100 µM | HOP-92 > 100 µM | IGROV-1 > 100 µM | HL-60 > 100 µM | ACHN > 100 µM | TK-10 > 100 µM | CCRF-CEM > 100 µM | NCI-H460 > 100 µM | NCI-H226 > 100 µM | OVCAR-3 > 100 µM | 786-0 > 100 µM | SF-539 > 100 µM | SK-MEL-28 > 100 µM | SK-MEL-5 > 100 µM | HCC 2998 > 100 µM | HOP-62 > 100 µM | A498 > 100 µM | SF-268 > 100 µM

O=c1nc2n(c3nsnc13)CCO2
inactive: SNB-75 > 100 µM | HOP-92 > 100 µM | IGROV-1 > 100 µM | HL-60 > 100 µM | ACHN > 100 µM | TK-10 > 100 µM | CCRF-CEM > 100 µM | NCI-H460 > 100 µM | NCI-H226 > 100 µM | OVCAR-3 > 100 µM | 786-0 > 100 µM | SF-539 > 100 µM | SK-MEL-28 > 100 µM | SK-MEL-5 > 100 µM | HCC 2998 > 100 µM | RXF 393 > 100 µM | HOP-62 > 100 µM | SF-268 > 100 µM

C/C(CC(=O)Nc1cc(Cl)c(Cl)cc1Cl)=N\NC(N)=O
inactive: SNB-75 66.5 µM | HOP-92 39.1 µM | IGROV-1 > 100 µM | HL-60 > 100 µM | TK-10 > 100 µM | CCRF-CEM > 100 µM | NCI-H226 > 100 µM | OVCAR-3 > 100 µM | 786-0 > 100 µM | SF-539 > 100 µM | SK-MEL-28 > 100 µM | SK-MEL-5 > 100 µM | HCC 2998 > 100 µM | RXF 393 61.7 µM | HOP-62 > 100 µM | SF-268 > 100 µM

O=c1n(C2CCCCC2)c(=C(Cl)Cl)c(=C(Cl)Cl)n1C1CCCCC1
inactive: SNB-75 > 100 µM | IGROV-1 > 100 µM | HL-60 39.6 µM | ACHN > 100 µM | TK-10 > 100 µM | CCRF-CEM > 100 µM | NCI-H460 > 100 µM | NCI-H226 > 100 µM | OVCAR-3 > 100 µM | 786-0 > 100 µM | SF-539 > 100 µM | SK-MEL-28 > 100 µM | SK-MEL-5 > 100 µM | HCC 2998 > 100 µM | RXF 393 > 100 µM | HOP-62 > 100 µM | A498 > 100 µM | SF-268 > 100 µM

COC(=O)c1c(-c2ccccc2)cc2c3cc(-c4ccccc4)c(C(=O)OC)n3c3ccccc3n12
inactive: SNB-75 20.1 µM | IGROV-1 > 100 µM | HL-60 > 100 µM | ACHN > 100 µM | TK-10 > 100 µM | CCRF-CEM > 100 µM | NCI-H460 > 100 µM | NCI-H226 > 100 µM | OVCAR-3 > 100 µM | 786-0 > 100 µM | SF-539 > 100 µM | SK-MEL-28 > 100 µM | SK-MEL-5 > 100 µM | HCC 2998 > 100 µM | RXF 393 > 44.8 µM | HOP-62 > 100 µM | A498 > 100 µM | SF-268 > 100 µM

C/C(=N\NC(=O)C(N)=O)c1c(O)cc(C)oc1=O
inactive: SNB-75 > 100 µM | HOP-92 > 100 µM | IGROV-1 > 100 µM | HL-60 > 100 µM | ACHN > 100 µM | TK-10 > 100 µM | CCRF-CEM > 100 µM | NCI-H460 > 100 µM | NCI-H226 > 100 µM | 786-0 > 100 µM | SF-539 > 100 µM | SK-MEL-28 > 100 µM | SK-MEL-5 > 100 µM | HCC 2998 > 100 µM | HOP-62 > 100 µM | A498 > 100 µM | SF-268 > 100 µM

C#Cc1ccccc1C(=O)OC
inactive: SNB-75 11.5 µM | HOP-92 > 100 µM | IGROV-1 > 100 µM | HL-60 > 100 µM | ACHN > 100 µM | TK-10 > 100 µM | CCRF-CEM > 100 µM | NCI-H460 > 100 µM | NCI-H226 > 100 µM | OVCAR-3 > 100 µM | SF-539 > 100 µM | SK-MEL-28 > 100 µM | SK-MEL-5 > 100 µM | HCC 2998 > 100 µM | RXF 393 > 100 µM | HOP-62 > 100 µM | A498 > 100 µM

CC(=O)NNc1nc(C)c(C(=O)/C=C/c2cccc([N+](=O)[O-])c2)s1
inactive: HOP-92 > 100 µM | IGROV-1 > 100 µM | HL-60 > 100 µM | TK-10 > 100 µM | CCRF-CEM > 100 µM | NCI-H460 > 100 µM | NCI-H226 > 100 µM | OVCAR-3 > 100 µM | 786-0 > 100 µM | SF-539 > 100 µM | SK-MEL-28 > 100 µM | SK-MEL-5 > 100 µM | HCC 2998 > 100 µM | RXF 393 > 100 µM | HOP-62 > 100 µM | A498 > 100 µM | SF-268 > 100 µM

COC(=O)C1=C(\O)C[C@@]2(C)CC[C@@H](C(=O)OC)C2C/C=C\1C(=O)OC (some centres not stated)
inactive: SNB-75 > 100 µM | HOP-92 > 100 µM | IGROV-1 > 100 µM | HL-60 49.5 µM | ACHN > 100 µM | TK-10 > 100 µM | CCRF-CEM > 100 µM | NCI-H460 > 100 µM | NCI-H226 89.1 µM | OVCAR-3 > 100 µM | 786-0 > 100 µM | SF-539 19.7 µM | SK-MEL-28 47 µM | SK-MEL-5 48.9 µM | HCC 2998 > 100 µM | RXF 393 40.6 µM | HOP-62 > 100 µM | A498 23 µM | SF-268 70.5 µM

CCOC(=O)NC(=O)c1cn(CCCCCCOC(=O)NCCCCCCNC(=O)OCCCCCCn2cc(C(=O)NC(=O)OCC)c(=O)[nH]c2=O)c(=O)[nH]c1=O
inactive: SNB-75 > 100 µM | IGROV-1 > 100 µM | HL-60 > 100 µM | ACHN > 100 µM | CCRF-CEM > 100 µM | NCI-H460 > 100 µM | NCI-H226 > 100 µM | OVCAR-3 > 100 µM | 786-0 > 100 µM | SF-539 > 100 µM | SK-MEL-28 > 100 µM | SK-MEL-5 > 100 µM | HCC 2998 > 100 µM | RXF 393 > 100 µM | HOP-62 > 100 µM | A498 > 100 µM | SF-268 > 100 µM

CNC(=S)N(C)C(=S)Nn1c(=O)c(C)nn(C)c1=S
inactive: SNB-75 > 100 µM | HOP-92 > 100 µM | IGROV-1 > 100 µM | HL-60 > 100 µM | ACHN > 100 µM | CCRF-CEM > 100 µM | NCI-H460 > 100 µM | NCI-H226 > 100 µM | 786-0 > 100 µM | SF-539 > 100 µM | SK-MEL-28 > 100 µM | SK-MEL-5 > 100 µM | RXF 393 > 100 µM | HOP-62 > 100 µM | A498 > 100 µM | SF-268 > 100 µM
